Marks after values point to notes of the source that are not given here.

These results are taken from patent US10428101B2, “Preparation of glycosphingosines” (The Regents of the University of California, priority 2013, dated 2019).

For data set [1], the target named is Pasteurella multocida α2-3-sialyltransferase 1 E271F/R313Y mutant (PmST1 E271F/R313Y) (Pasteurella multocida, UniProt Q15KI8, E271F/R313Y). The following applies: for Conversion (%): acceptor lactoside to Neu5Acα2-3 product, OPME sialylation pH 8.5, assayed at 4 h, TLC and ImageQuant 5.2. An excerpt: To test the suitability of lactoside 1 as an acceptor sugar, a one-pot two-enzyme system containing PmST1 E271F/R313Y and Neisseria meningitidis CMP-sialic acid synthetase (NmCSS) (Scheme 2) was used.
Pasteurella multocida α2-3-sialyltransferase 1 E271F/R313Y mutant (PmST1 E271F/R313Y), sequence (Q15KI8 26-412 E271F/R313Y): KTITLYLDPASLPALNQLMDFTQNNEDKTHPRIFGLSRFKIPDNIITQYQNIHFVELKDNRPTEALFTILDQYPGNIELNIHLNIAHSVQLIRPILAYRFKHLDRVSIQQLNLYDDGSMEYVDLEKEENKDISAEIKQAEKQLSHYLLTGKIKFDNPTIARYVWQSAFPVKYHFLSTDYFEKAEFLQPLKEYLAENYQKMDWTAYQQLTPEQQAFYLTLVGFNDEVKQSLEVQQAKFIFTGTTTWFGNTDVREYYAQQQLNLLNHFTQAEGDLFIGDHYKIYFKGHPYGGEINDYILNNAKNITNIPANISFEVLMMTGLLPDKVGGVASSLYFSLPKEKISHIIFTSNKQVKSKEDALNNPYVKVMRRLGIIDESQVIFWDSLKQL
To increase the solubility of the fluorous-tagged lactosides and to examine how the length of the fluorous tags affects the efficiency of the enzymatic reactions, fluorous-tagged lactosides (2-4) (Scheme 1) containing a propylamide linker and different lengths of fluoroalkyl chains were synthesized and used as the acceptor sugars in a one-pot two-enzyme system containing NmCSS and PmST1 E271F/R313Y (Scheme 3).
The reactions were monitored by TLC (EtOAc:MeOH:H2O:AcOH=5:2:1:0.1).

The nature of data set [2]: Water solubility of fluorous-tagged lactoside. The following applies: qualitative statement. The format is physicochemical.
Data set [3] has as its target Photobacterium damselae α2-6-sialyltransferse (Pd2,6ST) (Photobacterium damselae, UniProt O66375). Kind of data set: One-pot two-enzyme α2-6-sialylation of fluorous-tagged lactoside acceptors (NmCSS + Pd2,6ST), conversion by TLC/ImageQuant. The following applies: acceptor lactoside to Neu5Acα2-6 product; OPME sialylation pH 8.5; assayed at 4 h; TLC and ImageQuant 5.2. The format is biochemical.
Procedure: B: One-pot two-enzyme sialylation reaction with Pd2,6ST.
Reaction conversion rates were determined by staining the TLC plates with p-anisaldehyde sugar stain and then using ImageQuant 5.2 software to compare the relative intensities between the glycosylation product spot and the lactoside acceptor spot of each reaction (FIG. 1). For external standard comparison, each lactoside acceptor spot was also compared with its corresponding standard 10 mM stock solution spot to verify the conversion rates of each reaction.
Pd2,6ST (0.72 μg) was added to a 0.5 mL centrifuge tube containing 0.01μmol (1 eq.) of a lactoside acceptor (chosen from 1-8), Neu5Ac (1.2 eq.), CTP (2 eq.), Tris-HCl buffer (100 mM, pH 8.5), MgCl2 (20 mM), NmCSS (0.08 μg), and water (total volume=10 μL). The reactions were monitored by TLC (EtOAc:MeOH:H2O:AcOH=5:2:1:0.1).

Photobacterium damselae α2-6-sialyltransferse (Pd2,6ST), sequence (O66375 entry or part of it): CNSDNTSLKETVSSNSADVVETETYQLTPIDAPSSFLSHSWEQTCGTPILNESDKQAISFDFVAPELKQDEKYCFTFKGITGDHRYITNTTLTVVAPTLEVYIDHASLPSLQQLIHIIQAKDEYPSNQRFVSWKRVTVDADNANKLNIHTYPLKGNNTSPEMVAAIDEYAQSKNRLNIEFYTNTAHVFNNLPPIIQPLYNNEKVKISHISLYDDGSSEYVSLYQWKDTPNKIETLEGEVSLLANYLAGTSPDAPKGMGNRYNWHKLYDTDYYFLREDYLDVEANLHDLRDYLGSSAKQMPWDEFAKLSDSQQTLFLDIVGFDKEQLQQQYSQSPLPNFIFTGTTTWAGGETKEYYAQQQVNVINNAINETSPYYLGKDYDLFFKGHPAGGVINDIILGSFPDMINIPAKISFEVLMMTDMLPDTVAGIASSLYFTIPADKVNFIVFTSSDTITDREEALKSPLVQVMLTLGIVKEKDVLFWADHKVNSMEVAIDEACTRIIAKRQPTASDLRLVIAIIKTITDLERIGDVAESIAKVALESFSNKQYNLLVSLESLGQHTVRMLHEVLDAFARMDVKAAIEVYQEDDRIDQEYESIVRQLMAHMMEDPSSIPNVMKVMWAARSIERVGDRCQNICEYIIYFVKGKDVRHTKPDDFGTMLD

For LacβC8F17 [Compound 1], in data set [1] (one-pot two-enzyme system PmST1 E271F/R313Y and NmCSS, by TLC and MALDI-TOF), the “sialylated product detected (trace amount)” value is on record as under 10%. In data set [2], the water solubility result was “low”.

For the substance LacβProNH-C8F17 [Compound 2], the “Conversion (%)” value in data set [1] was 22 ± 12^[b] %; in data set [3] it was 31 ± 18^[b] %.

As for LacβProNH-HEG-C6F13 [Compound 8], the “Conversion (%)” value in data set [1] was 80 ± 15^[b] %; in data set [3] it was 66 ± 25^[b] %.

Take LacβProNH-HEG-C8F17 [Compound 6]: the “Conversion (%)” value was 55 ± 7.8^[b] % in data set [1] and 52 ± 5.6^[b] % in data set [3].

Turning to LacβProNH-TEG-C6F13 [Compound 7], the “Conversion (%)” value in data set [1] was 70 ± 4.8^[b] %; in data set [3], 65 ± 7.9^[b] %.

As to LacβProNH-TEG-C8F17 [Compound 5], the “Conversion (%)” value in data set [1] is 65 ± 11^[b] %; in data set [3] it was 47 ± 10^[b] %.

For LacβProNH—C3F7 [Compound 4], the entries for the “Conversion (%)” value in data set [1] and in data set [3] were 89 ± 9.8^[b] % and “qt.^[b]”, respectively.

Turning to LacβProNH—C6F13 [Compound 3], the “Conversion (%)” value in data set [1] is 92 ± 5.5^[b] %; in data set [3], 94 ± 6.0^[b] %.
